Data taken from patent publication US20260078103A1, “ISOQUINOLONES AS PI3K INHIBITORS” (OnKure, Inc., priority 2022, published 2026).
Where two headings read alike, the source gives them in different places.

Key:
Assay type in all cases: cell-based
[1] = test system: phosphorylation of AKT (pAKT) in SKBR3 cells express WT PI3Ka; assay: In vitro cell pAKT (Ser473) HTRF, SKBR3 cells; conditions: cellular pAKT
Description: (§1) In Vitro Cell pAKT: Determination of IC50 Values for Inhibition of Phosphorylation of AKT (pAKT) in T47D Cells Expressing Mutant PI3Ka (H1047R) Mutation and SKBR3 Cells Express WT PI3Ka.
(§2) T47D or SKBR3 cells were trypsinized, resuspended in culture media and seeded onto assay ready plates. T47D culture media consisted of RPMI, 10% FBS and Insulin (0.2 units/mL). SKBR3 culture media consisted of McCoy's 5a and 10% FBS. Cells were seeded at a density of 5000 cells/well and dispensed in 12.5 μL onto 384 well assay ready plates (Perkin Elmer, 6008238)). Assay ready plates had previously been stamped with 10-point dilutions of compounds of interest, as well as controls. The Echo655 is used to stamp plates at 12.5 nL of compound or DMSO. Cells were grown for 6 hours at 37° Celsius and 5% CO2. After 6 hours, 4 μL of Lysis buffer reagent was added to the plate, which was then centrifuged for 1 minute at 1000 rpm. Then the plate was incubated at room temperature for 30 minutes. After 30 minutes, 4 μL of antibody mix containing Eu Cryptate, d2 Cryptate, and detection buffer, was added to the plate. The plate was centrifuged for 1 minute at 1000 rpm and then incubated overnight at room temperature. The plate was read on an Envision plate reader using the HTRF protocol. The percentage of inhibition of AKT phosphorylation was calculated using the following formula: % Inhibition=100×(pAKTHC−pAKTSample)/(pAKTHC−pAKTLC)), where pAKTHC is obtained from cells treated with 0.1% DMSO only; PAKTLC is obtained from cells treated with 10 uM Alpelisib. The IC50 (concentration achieving 50% inhibition of pAKT) is calculated by fitting the Curve using XIfit (v5.3.1.3), equation 201: Y=Bottom+(Top−Bottom)/(1+10^((LogIC50−X)*HillSlope)).

[2] = test system: T47D cells expressing mutant PI3Ka (H1047R); assay: In vitro cell proliferation, T47D cells (CellTiter-Glo); conditions: inhibition of proliferation, 72 hours, read-out: Avg T-47D EC50
Description: (§3) In Vitro Cell Proliferation: Determination of EC50 Values for Inhibition of Proliferation in T47D Cells Expressing Mutant PI3Ka (H1047R) Mutation and SKBR3 Cells Express WT PI3Ka.
(§4) T47D or SKBR3 cells were trypsinized, resuspended in culture media and seeded onto assay ready plates. T47D culture media consisted of RPMI, 10% FBS and Insulin (0.2 units/mL). SKBR3 culture media consisted of McCoys 5a and 10% FBS. Cells were seeded at a density of 1,500 cells/well and dispensed in 50 μl onto 384 well assay ready plates (Corning, 89089-790). Assay ready plates had previously been stamped with 10-point dilutions of compounds of interest, as well as controls. The Echo655 is used to stamp plates at 40 nL of compound or DMSO. Cells were grown for 72 hours at 37° Celsius and 5% CO2. After 72 hours, cells were equilibrated at room temperature for 15 minutes. 30 μL of CellTiter-Glo reagent is added to the plate, which is then shaken for 30 minutes at temperature at 300-500 rpm. Cells are then read on an Envision plate reader. The percentage of inhibition of proliferation was calculated using the following formula: % Inhibition=100×(LumD−Lumsample)/(LumD−Lumlnh), where D is obtained from cells treated with 0.1% DMSO only; lnh is obtained from cells treated with 10 uM Alpelisib. The effective concentration achieving 50% inhibition of proliferation (EC50) is calculated by fitting the Curve using Xlfit (v5.3.1.3), equation 201: Y=Bottom+(Top−Bottom)/(1+10^((LogEC50−X)*HillSlope)).

[3] = test system: SKBR3 cells express WT PI3Ka; assay: In vitro cell proliferation, SKBR3 cells (CellTiter-Glo); conditions: inhibition of proliferation
Description: as §3, §4

[4] = test system: phosphorylation of AKT (pAKT) in T47D cells expressing mutant PI3Ka (H1047R); assay: In vitro cell pAKT (Ser473) HTRF, T47D cells; conditions: cellular pAKT, T47D cells, mutant PI3Ka (H1047R), 6 hours, read-out: Avg T-47D IC50
Description: as §1, §2

Row | SMILES | IC50 ([1]; 6 hours) [µM] | EC50 [2] [µM] | EC50 ([3]; 72 hours) [µM] | IC50 [4] [µM] | IC50 ([1]; Homo sapiens, SK-BR-3, 6 h) [µM] | EC50 ([3]; Homo sapiens, SK-BR-3, 72 h) [µM] | IC50 ([4]; Homo sapiens, T47D, 6 h) [µM]
1 | Cc1cc(C(C)Nc2ccccc2C(=O)O)c2cc(N3Cc4cccnc4C3)n(C)c(=O)c2c1 (single isomer, unassigned) [Example 19, 2-((1-(3-(5,7-dihydro-6H-pyrrolo[3,4-b]pyridin-6-yl)-2,7-dimethyl-1-oxo-1,2-dihydroisoquinolin-5-yl)ethyl)amino)benzoic acid] | > 15 | 0.001 to 0.5 | 2 to 15 | 0.001 to 0.5 |  |  | 
2 | Cc1cc(C(C)Nc2ccccc2C(=O)O)c2cc(-c3ccc(C)nc3)n(C)c(=O)c2c1 (single isomer, unassigned) [Example 20, 2-((1-(2,7-dimethyl-3-(6-methylpyridin-3-yl)-1-oxo-1,2-dihydroisoquinolin-5-yl)ethyl)amino)benzoic acid] |  | 2 to 15 |  | > 15 | > 15 | > 15 | 
3 | Cc1cc(C(C)Nc2ccccc2C(=O)O)c2cc(-c3ccc(C)nc3)n(C)c(=O)c2c1 (single isomer, unassigned) [Example 21, 2-((1-(2,7-dimethyl-3-(6-methylpyridin-3-yl)-1-oxo-1,2-dihydroisoquinolin-5-yl)ethyl)amino)benzoic acid] | > 15 | 0.001 to 0.5 | > 15 | 0.001 to 0.5 |  |  | 
4 | Cc1cc(C(C)Nc2ccc(Cl)nc2C(=O)O)c2cc(C3=CCC(C)(C)CC3)n(C)c(=O)c2c1 (single isomer, unassigned) [Example 22, 6-chloro-3-((1-(3-(4,4-dimethylcyclohex-1-en-1-yl)-2,7-dimethyl-1-oxo-1,2-dihydroisoquinolin-5-yl)ethyl)amino)picolinic acid] |  | 2 to 15 |  | 2 to 15 | > 15 | 2 to 15 | 
5 | Cc1cc(C(C)Nc2ccccc2C(=O)O)c2cc(N3C[C@H]4CN(CC(F)(F)F)C[C@H]4C3)n(C)c(=O)c2c1 (single isomer, unassigned) [Example 30] |  | 2 to 15 |  | > 15 | > 15 | 2 to 15 | 
6 | Cc1cc(C(C)Nc2ccccc2C(=O)O)c2cc(C#Cc3ccccc3)n(C)c(=O)c2c1 (single isomer, unassigned) [Example 35, 2-((1-(2,7-dimethyl-1-oxo-3-(phenylethynyl)-1,2-dihydroisoquinolin-5-yl)ethyl)amino)benzoic acid] |  | > 15 |  | > 15 | > 15 | > 15 | 
7 | Cc1cc(C(C)Nc2ccccc2C(=O)O)c2cc(C#Cc3ccccc3)n(C)c(=O)c2c1 (single isomer, unassigned) [Example 36, 2-((1-(2,7-dimethyl-1-oxo-3-(phenylethynyl)-1,2-dihydroisoquinolin-5-yl)ethyl)amino)benzoic acid] | > 15 | 0.001 to 0.5 | > 15 | 0.001 to 0.5 |  |  | 
8 | Cc1cc(C(CF)Nc2ccccc2C(=O)O)c2cc(N3CCN(CC(F)(F)F)CC3)n(C)c(=O)c2c1 (single isomer, unassigned) [Example 37, 2-((1-(2,7-dimethyl-1-oxo-3-(4-(2,2,2-trifluoroethyl)piperazin-1-yl)-1,2-dihydroisoquinolin-5-yl)-2-fluoroethyl)amino)benzoic acid] |  | 2 to 15 |  | 2 to 15 | > 15 | > 15 | 
9 | Cc1cc(C(CF)Nc2ccccc2C(=O)O)c2cc(N3CCN(CC(F)(F)F)CC3)n(C)c(=O)c2c1 (single isomer, unassigned) [Example 38, 2-((1-(2,7-dimethyl-1-oxo-3-(4-(2,2,2-trifluoroethyl)piperazin-1-yl)-1,2-dihydroisoquinolin-5-yl)-2-fluoroethyl)amino)benzoic acid] | > 15 | 0.001 to 0.5 | > 15 | 0.001 to 0.5 |  |  | 
10 | Cc1cc(C(C)Nc2ccccc2C(=O)O)c2cc(N3Cc4ccc(F)cc4C3)n(C)c(=O)c2c1 (single isomer, unassigned) [Example 49] |  | 0.001 to 0.5 |  |  | > 15 | > 15 | 0.001 to 0.5
11 | Cc1cc(C(C)Nc2ccccc2C(=O)O)c2cc(N3CC(c4ccccc4)C3)n(C)c(=O)c2c1 (single isomer, unassigned) [Example 76] |  | > 15 |  | > 15 | > 15 | > 15 | 
12 | Cc1cc(C(C)Nc2ccccc2C(=O)O)c2cc(N3CC(c4ccccc4)C3)n(C)c(=O)c2c1 (single isomer, unassigned) [Example 77] | > 15 | 0.5 to 2 | > 15 | 0.001 to 0.5 |  |  | 

The remaining lines, values ahead:

Row | IC50 ([1]; 6 hours) [µM] | EC50 [2] [µM] | EC50 ([3]; 72 hours) [µM] | IC50 [4] [µM] | IC50 ([1]; Homo sapiens, SK-BR-3, 6 h) [µM] | EC50 ([3]; Homo sapiens, SK-BR-3, 72 h) [µM] | IC50 ([4]; Homo sapiens, T47D, 6 h) [µM] | SMILES
13 | > 15 | 0.001 to 0.5 | 2 to 15 | 0.001 to 0.5 |  |  |  | Cc1cc(C(C)Nc2ccccc2C(=O)O)c2cc(N3C[C@H]4CN(CC(F)(F)F)C[C@H]4C3)n(C)c(=O)c2c1 (single isomer, unassigned) [Example 31]
14 |  | > 15 |  | > 15 | > 15 | > 15 |  | Cc1cc(C(C)Nc2ccccc2C(=O)O)c2cc(N3CCN(C(=O)CC(C)C)CC3)n(C)c(=O)c2c1 (single isomer, unassigned) [Example 32, 2-((1-(2,7-dimethyl-3-(4-(3-methylbutanoyl)piperazin-1-yl)-1-oxo-1,2-dihydroisoquinolin-5-yl)ethyl)amino)benzoic acid]
15 | > 15 | 0.001 to 0.5 | > 15 | 0.001 to 0.5 |  |  |  | Cc1cc(C(C)Nc2ccccc2C(=O)O)c2cc(N3CCN(C(=O)CC(C)C)CC3)n(C)c(=O)c2c1 (single isomer, unassigned) [Example 33, 2-((1-(2,7-dimethyl-3-(4-(3-methylbutanoyl)piperazin-1-yl)-1-oxo-1,2-dihydroisoquinolin-5-yl)ethyl)amino)benzoic acid]
16 |  | 2 to 15 |  | > 15 | > 15 | > 15 |  | Cc1cc(C(C)Nc2ccccc2C(=O)O)c2cc(N3CC(Cl)C3)n(C)c(=O)c2c1 (single isomer, unassigned) [Example 78]
17 | > 15 | 0.001 to 0.5 | > 15 | 0.001 to 0.5 |  |  |  | Cc1cc(C(C)Nc2ccccc2C(=O)O)c2cc(N3CC(Cl)C3)n(C)c(=O)c2c1 (single isomer, unassigned) [Example 79]
18 |  | > 15 |  | > 15 | > 15 | > 15 |  | Cc1cc(C(C)Nc2ccccc2C(=O)O)c2cc(N3CC4(C3)CC(F)(F)C4)n(C)c(=O)c2c1 (single isomer, unassigned) [Example 80]
19 | > 15 | 0.5 to 2 | > 15 | 0.001 to 0.5 |  |  |  | Cc1cc(C(C)Nc2ccccc2C(=O)O)c2cc(N3CC4(C3)CC(F)(F)C4)n(C)c(=O)c2c1 (single isomer, unassigned) [Example 81]
20 |  | 0.5 to 2 |  | 0.001 to 0.5 | > 15 | > 15 |  | Cc1cc(C(C)Nc2ccccc2C(=O)O)c2cc(N3CC4(CC(C(F)(F)F)C4)C3)n(C)c(=O)c2c1 (single isomer, unassigned) [Example 82]
21 | > 15 | 2 to 15 | > 15 | > 15 |  |  |  | Cc1cc(C(C)Nc2ccccc2C(=O)O)c2cc(N3CC4(CC(C(F)(F)F)C4)C3)n(C)c(=O)c2c1 (single isomer, unassigned) [Example 83]
